{"source": "ChEMBL document CHEMBL5375972", "about": "“Discovery of Novel 2,3-Dihydro-1H-indene-5-sulfonamide NLRP3 Inflammasome Inhibitors Targeting Colon as a Potential Therapy for Colitis” (J Med Chem, 2023)", "key": {"[1]": {"test": "Subacute toxicity in C57BL/6 mouse assessed as change in lung weight at 100 mg/kg,ip administrated for 14 days", "format": "organism-based", "details": "in vivo, 336 h, time 14 day"}, "[2]": {"test": "Acute toxicity in Kunming mouse model assessed as lethargy at 1000 mg/kg,IG administration for 7 days", "format": "organism-based", "details": "in vivo, po, 168 h, time 7 day"}, "Mus musculus": {"tested_on": "Mus musculus", "test": "Anti-inflammatory activity in DSS-induced ulcerative colitis C57BL/6 mouse model assessed as decrease in caspase-1 expression in colon at 10 mg/kg,ip administrated for 9 days by immunohistochemistry analysis", "format": "functional, organism-based", "details": "time 9.0 day"}, "[3]": {"test": "Drug distribution in Sprague-Dawley rat liver at 1 mg/kg,iv measured for 0.5 to 2 hrs by HPLC-MS/MS analysis", "format": "ADME, organism-based", "details": "in vivo, time 0.5-2 hrs"}, "[4]": {"test": "Subacute toxicity in C57BL/6 mouse assessed as change in spleen weight at 10 mg/kg,ip administrated for 14 days", "format": "organism-based", "details": "in vivo, 336 h, time 14 day"}, "[5]": {"test": "Acute toxicity in Kunming mouse model assessed as ruffled fur at 2000 mg/kg,IG administration for 7 days", "format": "organism-based", "details": "in vivo, po, 168 h, time 7 day"}, "[6]": {"test": "Stability of compound in human plasma measured for 48 hrs", "format": "ADME, cell-free"}}, "note": "Calls of active or inactive are those of the source. No cut-off for these calls is given here.", "data": [{"smiles": "CCCNS(=O)(=O)c1ccc2c(c1)CC(N(Cc1cc(Cl)ccc1OCCOC)C(=O)c1cc3ccccc3o1)C2", "note": "(racemic)", "values": [{"measurement": "Activity", "setting": "[1]", "result": "Non-Toxic"}, {"measurement": "Activity", "setting": "[2]", "result": "Non-Toxic"}, {"measurement": "Activity", "setting": "Mus musculus", "result": "Active"}, {"measurement": "Drug uptake", "setting": "[3]", "result": "Active"}, {"measurement": "Activity", "setting": "[4]", "result": "Non-Toxic"}, {"measurement": "Activity", "setting": "[5]", "result": "Non-Toxic"}, {"measurement": "Stability", "setting": "[6]", "result": "Stable"}]}]}
